BindingDB's records for doi:10.1002/cbic.201600697 (University of Tartu, 2017)
Values joined by “and” are separate entries in the source; they are usually repeats but may differ in a detail not shown here. Equal values may be shown once.

Experiments:
Settings in all cases: pH 7.5
[1] = biological target: T1, Serine/threonine-protein kinase haspin [470-798] (Homo sapiens, UniProt Q8TF76); test: Equilibrium Binding/Displacement Assay with Fluorescence Anisotropy
T1 construct: 470-798
T1 sequence (Q8TF76 whole entry): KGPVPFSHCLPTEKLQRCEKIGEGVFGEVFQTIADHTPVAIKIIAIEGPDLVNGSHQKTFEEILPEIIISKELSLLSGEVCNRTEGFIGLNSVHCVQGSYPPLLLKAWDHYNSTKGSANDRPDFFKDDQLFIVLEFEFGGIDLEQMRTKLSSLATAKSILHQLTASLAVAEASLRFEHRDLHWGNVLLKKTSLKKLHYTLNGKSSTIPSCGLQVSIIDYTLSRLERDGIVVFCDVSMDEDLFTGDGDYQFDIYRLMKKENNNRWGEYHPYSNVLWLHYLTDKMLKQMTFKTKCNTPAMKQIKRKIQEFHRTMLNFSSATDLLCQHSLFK
Description: (§1) All measurements were performed in HEPES (50 mm, pH 7.5) containing NaCl (150 mm), Tween-20 (0.005%) and DTT (5 mm) according to a previously published protocol.[Vaasa et al., Anal. Biochem., 385:85-93] The final volume of the assay mixture was […].

[2] = biological target: cAMP-dependent protein kinase catalytic subunit alpha (Homo sapiens, UniProt P17612); test: as above
Description: as §1

[3] = biological target: T1, Serine/threonine-protein kinase haspin [470-798]; test: Kinetic Assay with Fluorescence Anisotropy
Description: Association kinetics (Kon): All measurements were performed in HEPES (50 mM, pH 7.5) containing NaCl (150 mM), Tween-20 (0.005%) and DTT (5 mM) according to a previously published protocol.[Vaasa et al., Anal. Biochem., 385:85-93] The final volume of the assay mixture was […] The association kinetics assay with fluorescent probes and data analysis were performed according to published protocols.[Vaasa et al., Anal. Biochem., 385:85-93] The final volume of the assay mixture was […]. Dissociation kinetics (Koff): All measurements were performed in HEPES (50 mM, pH 7.5) containing NaCl (150 mM), Tween-20 0.005%) and DTT (5 mM). Data analysis was as reported previously,[Vaasa et al., Anal. Biochem., 385:85-93] by using method1 for compounds with shorter residence times, and method 2 for 1 in studies with haspin. The final volume of the assay mixture was […]. Kd' is calculated as Koff/Kon.

Compound | Kd [1] | Kd [2] [nM] | Kd [3] [nM]
CCCCCCCCCCCCCC(=O)NCCCC[C@@H](NC(=O)[C@H](C)NC(=O)[C@@H](NC(=O)[C@H](CCC(N)=O)NC(=O)[C@H](CCCNC(=N)N)NC(=O)[C@H](CCCCNC(=O)C[C@@H](NC(=O)CCCCCNC(=O)[C@H]1O[C@@H](n2ccc3c(N)ncnc32)[C@H](O)[C@@H]1O)C(=O)[O-])NC(=O)[C@H](CCCNC(=N)N)NC(=O)[C@H](C)N)C(C)O)C(=O)N[C@H](CCCCNC(=O)c1ccc(-c2c3ccc(=[N+](C)C)cc-3oc3cc(N(C)C)ccc23)c(C(=O)O)c1)C(N)=O (stereo partly specified) [ARC-3380] | 8.4 nM | 9.6 | 14.9
CC(O)[C@H](NC(=O)[C@H](CCC(N)=O)NC(=O)[C@H](CCCNC(=N)N)NC(=O)[C@H](CCCCNC(=O)C[C@@H](NC(=O)CCCCCNC(=O)[C@H]1O[C@@H](n2ccc3c(N)ncnc32)[C@H](O)[C@@H]1O)C(=O)[O-])NC(=O)[C@H](CCCNC(=N)N)NC(=O)[C@H](C)N)C(=O)N[C@@H](C)C(=O)N[C@H](CCCCNC(=O)c1ccc(-c2c3ccc(=[N+](C)C)cc-3oc3cc(N(C)C)ccc23)c(C(=O)O)c1)C(N)=O (stereo partly specified) [ARC-3384] | 11 nM | 52 | 2.84
CC(O)[C@H](NC(=O)[C@H](CCC(N)=O)NC(=O)[C@H](CCCNC(=N)N)NC(=O)[C@H](CCCCNC(=O)C[C@@H](NC(=O)CCCCCNC(=O)[C@H]1O[C@@H](n2cc(I)c3c(N)ncnc32)[C@H](O)[C@@H]1O)C(=O)O)NC(=O)[C@H](CCCNC(=N)N)NC(=O)[C@H](C)N)C(=O)N[C@@H](C)C(=O)N[C@H](CCCCN)C(N)=O (stereo partly specified) [ARC-3429] | 0.14 nM and 0.019 nM | 94 | 
CC(O)[C@H](NC(=O)[C@H](CCC(N)=O)NC(=O)[C@H](CCCNC(=N)N)NC(=O)[C@H](CCCCNC(=O)C[C@@H](NC(=O)CCCCCNC(=O)[C@H]1O[C@@H](n2cc(I)c3c(N)ncnc32)[C@H](O)[C@@H]1O)C(=O)[O-])NC(=O)[C@H](CCCNC(=N)N)NC(=O)[C@H](C)N)C(=O)N[C@@H](C)C(=O)N[C@H](CCCCNC(=O)c1ccc(-c2c3ccc(=[N+](C)C)cc-3oc3cc(N(C)C)ccc23)c(C(=O)O)c1)C(N)=O (stereo partly specified) [ARC-3430] | 0.5 nM and 0.12 nM | 4.1 | 0.1
